Measurements taken from PMC6274554, “Synthetic Strategy and Anti-Tumor Activities of Macrocyclic Scaffolds Based on 4-Hydroxyproline” (Molecules, 2016).
pIC50: −log10 of the molar value. Like-named read-outs stand apart in the source and are kept apart here.

Columns and labels:
Format in all cases: cell-based, human
[1] = tested on: hepatocarcinoma cell line Hep G2; test: MTT cytotoxicity assay, Hep G2; details: 8000 cells/well, 24 h incubation with compound, absorbance 490 nm, read-out: IC50 (μmol/L) Hep G2
Description: (§1) A small library derived from 6a–b, 9 and 10a–c was obtained by hydrolysis of the macrocycles and condensation with amines. The anti-tumor activities for lung cancer cell line A549, breast cancer cell line MDA-MB-231 and hepatocarcinoma cell line Hep G2 of all these new compounds were screened in vitro by an MTT assay. Most of the compounds show some inhibitory activities against A549, MDA-MB-231 and Hep G2. […] In the future, further structure–activity relationship studies will be performed to determine how the substituents affected the anti-tumor activity and to design the best chemical structure in the future.
(§2) The human lung cancer cell line A549, breast cancer cell line MDA-MB-231 and hepatocarcinoma cell line Hep G2 were cultured in Dulbecco’s modified Eagle’s medium (DMEM) supplemented with antibiotics (penicillin 50 U/mL; streptomycin 50 µg/mL) and 10% FCS. The incubation was at 37 °C in a humidified atmosphere of 5% CO2 in air before experiments. Cells were first seeded at a density of 8000 cells/well in a 96-well plate for 48 hours. Solutions containing respective concentrations of compounds were added into wells and incubation continued for another 24 hours. After that, the MTT (3-(4,5-dimethylthiazol-2-yl)-2,5-diphenyltetrazolium bromide) dye stock solution (10 μL, 5 mg/mL) was added to each well. After 4 h, the supernatant was removed and DMSO (100 μL) was added to solubilize the MTT. The absorbance was measured at a wave length of 490 nm (A490nm) on an ELISA microplate reader. Results were expressed as IC50 values.

[2] = tested on: breast cancer cell line MDA-MB-231; test: MTT cytotoxicity assay, MDA-MB-231; details: MDA-MB-231 cells, 8000 cells/well, 24 h incubation with compound, absorbance 490 nm, read-out: IC50 (μmol/L) MDA-MB-231
Description: as §1, §2

[3] = tested on: lung cancer cell line A549; test: MTT cytotoxicity assay, A549; details: A549 cells, 8000 cells/well, 24 h incubation with compound, absorbance 490 nm, read-out: IC50 (μmol/L) A549
Description: as §1, §2

[4] = Homo sapiens, HepG2, Hep G2 cells

Question: With O=C(O)[C@@H]1C[C@@H]2CN1C(=O)c1cccc(c1)OCCCCCCO2 [Compound 42, (10R,12S)-14-Oxo-2,9-dioxa-13-aza-tricyclo[13.3.1.1^10,13]eicosane-1(19),15,17-triene-12-carboxylic acid] as the compound, how does the pIC50 [1, 4] read?
Answer: 4.06

Question: What about the pIC50 ([2]; Homo sapiens) of the same compound?
Answer: < 4.00

Question: What about the pIC50 ([3]; Homo sapiens) of the same compound?
Answer: < 4.00

Question: How did the pIC50 [1, 4] turn out when O=C(Nc1ccccc1)[C@@H]1C[C@@H]2CN1C(=O)c1cccc(c1)OCCCCCCO2 [Compound 44, (10R,12S)-14-Oxo-N-phenyl-2,9-dioxa-13-aza-tricyclo[13.3.1.1^10,13]eicosane-1(19),15,17-triene-12-carboxamide] was run?
Answer: 4.05

Question: And the pIC50 ([2]; Homo sapiens)?
Answer: 4.64

Question: What about the pIC50 ([3]; Homo sapiens) of the same compound?
Answer: 4.01

Question: CC(C)CNC(=O)[C@@H]1C[C@@H]2CN1C(=O)c1cccc(c1)OCCn1cc(nn1)CO2 [Compound 25, (11R,13S)-15-Oxo-N-isobutyl-2,10-dioxa-5,6,7,14-tetraaza-tetracyclo[14.3.1.1^5,8.1^11,14]docosane-6,8(21),1(20),16,18-pentaene-13-carboxamide] was tested. Which pIC50 ([1]; Hep G2 cells) did it give?
Answer: 4.32

Question: And the pIC50 [2]?
Answer: 4.37

Question: What about the pIC50 [3] of the same compound?
Answer: 4.42

Question: What does the source list for CC(C)CNC(=O)[C@@H]1C[C@@H]2CN1C(=O)c1cccc(c1)OCCCCO2 [Compound 37, (8R,10S)-12-Oxo-N-isobutyl-2,7-dioxa-11-aza-tricyclo[11.3.1.1^8,11]octadecane-1(17),13,15-triene-10-carboxamide]?
Answer: pIC50 [1, 4]: 4.14; pIC50 ([2]; Homo sapiens): 4.06; pIC50 ([3]; Homo sapiens): 4.11

Question: How did the pIC50 [1, 4] turn out when O=C(O)[C@@H]1C[C@@H]2CN1C(=O)c1cccc(c1)OC/C=C\CO2 [Compound 30, (4Z,8R,10S)-12-Oxo-2,7-dioxa-11-aza-tricyclo[11.3.1.1^8,11]octadecane-4,1(17),13,15-tetraene-10-carboxylic acid] was run?
Answer: 4.63

Question: What about the pIC50 ([2]; Homo sapiens) of the same compound?
Answer: 4.99

Question: What about the pIC50 ([3]; Homo sapiens) of the same compound?
Answer: 4.95

Question: With O=C(Nc1ccccc1)[C@@H]1C[C@@H]2CN1C(=O)c1cccc(c1)OCCCCO2 [Compound 36, (8R,10S)-12-Oxo-N-phenyl-2,7-dioxa-11-aza-tricyclo[11.3.1.1^8,11]octadecane-1(17),13,15-triene-10-carboxamide] as the compound, how does the pIC50 [1, 4] read?
Answer: 4.02

Question: What about the pIC50 ([2]; Homo sapiens) of the same compound?
Answer: 4.07

Question: What about the pIC50 ([3]; Homo sapiens) of the same compound?
Answer: 4.27

Question: CC(C)CNC(=O)[C@@H]1C[C@@H]2CN1C(=O)c1cccc(c1)OCCCCCCO2 [Compound 45, (10R,12S)-14-oxo-N-Isobutyl-2,9-dioxa-13-aza-tricyclo[13.3.1.1^10,13]eicosane-1(19),15,17-triene-12-carboxamide] was tested. Which pIC50 [1, 4] did it give?
Answer: 4.05

Question: And the pIC50 ([2]; Homo sapiens)?
Answer: 4.05

Question: And the pIC50 ([3]; Homo sapiens)?
Answer: 4.03

Question: O=C(O)[C@@H]1C[C@@H]2CN1C(=O)c1cccc(c1)OCCn1nncc1CO2 [Compound 26, (12R,14S)-16-Oxo-2,11-dioxa-5,6,7,15-tetraaza-tetracyclo[15.3.1.1^12,15.0^5,9]docosane-6,8,1(21),17,19-pentaene-14-carboxylic acid] was tested. Which pIC50 [1, 4] did it give?
Answer: 4.35

Question: What about the pIC50 ([2]; Homo sapiens) of the same compound?
Answer: 4.46

Question: And the pIC50 ([3]; Homo sapiens)?
Answer: 4.43

Question: With O=C(Nc1ccccc1)[C@@H]1C[C@@H]2CN1C(=O)c1cccc(c1)OCCCCCO2 [Compound 40, (9R,11S)-13-Oxo-N-phenyl-2,8-dioxa-12-aza-tricyclo[12.3.1.1^9,12]nonadecane-1(18),14,16-triene-11-carboxamide] as the compound, how does the pIC50 [1, 4] read?
Answer: 4.17

Question: What about the pIC50 ([2]; Homo sapiens) of the same compound?
Answer: 4.12

Question: And the pIC50 ([3]; Homo sapiens)?
Answer: 4.06

Question: How did the pIC50 [1, 4] turn out when O=C(O)[C@@H]1C[C@@H]2CN1C(=O)c1cccc(c1)OCCCCCO2 [Compound 38, (9R,11S)-13-Oxo-2,8-dioxa-12-aza-tricyclo[12.3.1.1^9,12]nonadecane-1(18),14,16-triene-11-carboxylic acid] was run?
Answer: < 4.00

Question: And the pIC50 ([2]; Homo sapiens)?
Answer: 4.03

Question: What about the pIC50 ([3]; Homo sapiens) of the same compound?
Answer: < 4.00

Question: NC(=O)[C@@H]1C[C@@H]2CN1C(=O)c1cccc(c1)OCCn1nncc1CO2 [Compound 27, (12R,14S)-16-Oxo-2,11-dioxa-5,6,7,15-tetraaza-tetracyclo[15.3.1.1^12,15.0^5,9]docosane-6,8,1(21),17,19-pentaene-14-carboxamide] was tested. Which pIC50 [1, 4] did it give?
Answer: 4.46

Question: And the pIC50 ([2]; Homo sapiens)?
Answer: 4.55

Question: What about the pIC50 ([3]; Homo sapiens) of the same compound?
Answer: 4.38

Question: With O=C(Nc1ccccc1)[C@@H]1C[C@@H]2CN1C(=O)c1cccc(c1)OCCn1nncc1CO2 [Compound 28, (12R,14S)-16-Oxo-N-phenyl-2,11-dioxa-5,6,7,15-tetraaza-tetracyclo[15.3.1.1^12,15.0^5,9]docosane-6,8,1(21),17,19-pentaene-14-carboxamide] as the compound, how does the pIC50 [1, 4] read?
Answer: 4.44

Question: What about the pIC50 ([2]; Homo sapiens) of the same compound?
Answer: 4.36

Question: And the pIC50 ([3]; Homo sapiens)?
Answer: 4.33

Question: With CC(C)CNC(=O)[C@@H]1C[C@@H]2CN1C(=O)c1cccc(c1)OCCCCCO2 [Compound 41, (9R,11S)-13-Oxo-N-isobutyl-2,8-dioxa-12-aza-tricyclo[12.3.1.1^9,12]nonadecane-1(18),14,16-triene-11-carboxamide] as the compound, how does the pIC50 [1, 4] read?
Answer: < 4.00

Question: What about the pIC50 ([2]; Homo sapiens) of the same compound?
Answer: 4.33

Question: And the pIC50 ([3]; Homo sapiens)?
Answer: 4.46

Question: NC(=O)[C@@H]1C[C@@H]2CN1C(=O)c1cccc(c1)OCCCCO2 [Compound 35, (8R,10S)-12-Oxo-2,7-dioxa-11-aza-tricyclo[11.3.1.1^8,11]octadecane-1(17),13,15-triene-10-carboxamide] was tested. Which pIC50 [1, 4] did it give?
Answer: 4.04

Question: And the pIC50 ([2]; Homo sapiens)?
Answer: 4.04

Question: What about the pIC50 ([3]; Homo sapiens) of the same compound?
Answer: 4.05

Question: How did the pIC50 ([1]; Hep G2 cells) turn out when N.N.[Cl][Pt][Cl] [Cisplatin, reference compound] was run?
Answer: 4.76

Question: And the pIC50 [2]?
Answer: 4.71

Question: And the pIC50 [3]?
Answer: 4.81

Question: With O=C(O)[C@@H]1C[C@@H]2CN1C(=O)c1cccc(c1)OCCCCO2 [Compound 34, (8R,10S)-12-Oxo-2,7-dioxa-11-aza-tricyclo[11.3.1.1^8,11]octadecane-1(17),13,15-triene-10-carboxylic acid] as the compound, how does the pIC50 [1, 4] read?
Answer: 4.02

Question: What about the pIC50 ([2]; Homo sapiens) of the same compound?
Answer: 4.02

Question: And the pIC50 ([3]; Homo sapiens)?
Answer: < 4.00

Question: With CC(C)CNC(=O)[C@@H]1C[C@@H]2CN1C(=O)c1cccc(c1)OC/C=C\CO2 [Compound 33, (4Z,8R,10S)-12-Oxo-N-isobutyl-2,7-dioxa-11-aza-tricyclo[11.3.1.1^8,11]octadecane-4,1(17),13,15-tetraene-10-carboxamide] as the compound, how does the pIC50 [1, 4] read?
Answer: 4.39

Question: And the pIC50 ([2]; Homo sapiens)?
Answer: 4.93

Question: What about the pIC50 ([3]; Homo sapiens) of the same compound?
Answer: 5.59

Question: NC(=O)[C@@H]1C[C@@H]2CN1C(=O)c1cccc(c1)OCCCCCCO2 [Compound 43, (10R,12S)-14-Oxo-2,9-dioxa-13-aza-tricyclo[13.3.1.1^10,13]eicosane-1(19),15,17-triene-12-carboxamide] was tested. Which pIC50 [1, 4] did it give?
Answer: 4.19

Question: And the pIC50 ([2]; Homo sapiens)?
Answer: 4.18

Question: What about the pIC50 ([3]; Homo sapiens) of the same compound?
Answer: 4.16

Question: NC(=O)[C@@H]1C[C@@H]2CN1C(=O)c1cccc(c1)OCCCCCO2 [Compound 39, (9R,11S)-13-Oxo-2,8-dioxa-12-aza-tricyclo[12.3.1.1^9,12]nonadecane-1(18),14,16-triene-11-carboxamide] was tested. Which pIC50 [1, 4] did it give?
Answer: < 4.00

Question: What about the pIC50 ([2]; Homo sapiens) of the same compound?
Answer: 4.24

Question: What about the pIC50 ([3]; Homo sapiens) of the same compound?
Answer: 4.20

Question: What does the source list for NC(=O)[C@@H]1C[C@@H]2CN1C(=O)c1cccc(c1)OC/C=C\CO2 [Compound 31, (4Z,8R,10S)-12-Oxo-2,7-dioxa-11-aza-tricyclo[11.3.1.1^8,11]octadecane-4,1(17),13,15-tetraene-10-carboxamide]?
Answer: pIC50 [1, 4]: 4.50; pIC50 ([2]; Homo sapiens): 4.91; pIC50 ([3]; Homo sapiens): 5.28

Question: What does the source list for O=C(Nc1ccccc1)[C@@H]1C[C@@H]2CN1C(=O)c1cccc(c1)OC/C=C\CO2 [Compound 32, (4Z,8R,10S)-12-Oxo-N-phenyl-2,7-dioxa-11-aza-tricyclo[11.3.1.1^8,11]octadecane-4,1(17),13,15-tetraene-10-carboxamide]?
Answer: pIC50 [1, 4]: 4.58; pIC50 ([2]; Homo sapiens): 5.01; pIC50 ([3]; Homo sapiens): 5.32

Question: With O=C(Nc1ccccc1)[C@@H]1C[C@@H]2CN1C(=O)c1cccc(c1)OCCn1cc(nn1)CO2 [Compound 24, (11R,13S)-15-Oxo-N-phenyl-2,10-dioxa-5,6,7,14-tetraaza-tetracyclo[14.3.1.1^5,8.1^11,14]docosane-6,8(21),1(20),16,18-pentaene-13-carboxamide] as the compound, how does the pIC50 ([1]; Hep G2 cells) read?
Answer: 4.33

Question: And the pIC50 [2]?
Answer: 4.45

Question: And the pIC50 [3]?
Answer: 4.34

Question: O=C(O)[C@@H]1C[C@@H]2CN1C(=O)c1cccc(c1)OCCn1cc(nn1)CO2 [Compound 22, (11R,13S)-15-Oxo-2,10-dioxa-5,6,7,14-tetraaza-tetracyclo[14.3.1.1^5,8.1^11,14]docosane-6,8(21),1(20),16,18-pentaene-13-carboxylic acid] was tested. Which pIC50 ([1]; Hep G2 cells) did it give?
Answer: 4.35

Question: What about the pIC50 [2] of the same compound?
Answer: 4.35

Question: What about the pIC50 [3] of the same compound?
Answer: 4.49

Question: With CC(C)CNC(=O)[C@@H]1C[C@@H]2CN1C(=O)c1cccc(c1)OCCn1nncc1CO2 [Compound 29, (12R,14S)-16-Oxo-N-isobutyl-2,11-dioxa-5,6,7,15-tetraaza-tetracyclo[15.3.1.1^12,15.0^5,9]docosane-6,8,1(21),17,19-pentaene-14-carboxamide] as the compound, how does the pIC50 [1, 4] read?
Answer: 4.43

Question: What about the pIC50 ([2]; Homo sapiens) of the same compound?
Answer: 4.36

Question: And the pIC50 ([3]; Homo sapiens)?
Answer: 4.49
